According to US12522630B2, “MRNA cap analog and uses thereof” (HANMI FINE CHEMICAL CO., LTD., priority 2022, dated 2026):

How the values were obtained:
[1] = target: T1, T7 RNA polymerase (Escherichia phage T7, UniProt P00573); assay: In vitro transcription of luciferase mRNA capped by co-transcriptional capping; type: biochemical; settings: 4 mM cap analog, 37° C., 1 to 4 hours; compared with ^7mG(3′OMe)pppA(2′OMe)pG (set as 100%); FIG. 1
T1 construct: purchased New England Biolab #dy1670
Protocol: For mRNA synthesis reaction using the compound of Example 8 as a cap analog, a transcription mixture including a 100 ng/ml firefly luciferase DNA transcription template (including poly A 101), 5 mM ATP, CTP, GTP, and 1-N-methyl-pseudouridine 5′-triphosphate (me^1øTP), 4 mM compound of Example 8, 10 U/ml T7 RNA polymerase (New England Biolab #dy1670), 1 U/ml RNase inhibiting protein, 0.01 U/ml inorganic pyrophosphatase, 40 mM Tris·HCl (pH 8.0), 20 mM magnesium acetate, 1 mM spermidine, and 10 mM DTT was prepared. As a comparative example, a transcription mixture was prepared by adding the TriLink's trinucleotide cap analog ^m7G(3′Ome)pppA(2′oMe)pG, instead of the compound of Example 8, under the same conditions. Each of the prepared transcription mixtures was reacted at 37° C. for 1 to 4 hours. […] Concentration of the purified mRNA was measured by using a Nanodrop spectrophotometer of Thermo Scientific, and a total amount of mRNA was calculated by multiplying the concentration and reaction volume. Then, in order to derive a mRNA in vitro transcription (IVT) yield, the total amount of mRNA synthesized using each different cap analog was divided by the input L-DNA content to quantify the IVT yield value according to the cap analog. […] This may be calculated by [Equation 1] below. […]

[2] = tested on: HEK293T cells; assay: Translation of capped luciferase mRNA in HEK293T cell; type: cell-based, Human; settings: compared with mRNA capped with ^7mG(3′OMe)pppA(2′OMe)pG
Protocol: Translation activity of luciferase mRNAs respectively prepared by in vitro transcription of the compound of Example 8 or ^7mG(3′OMe)pppA(2′OMe)pG in Experimental Example 1 was evaluated in Human embryonic kidney 293T cell lines (HEK293T). HEK293T cells were incubated in DMEM supplemented with 10% FBS and 1% penicillin/streptomycin at 37° C. under an atmosphere of 5% CO2. HEK293T cells were plated in a 6-well plate at a density of 1×10^5 cells/well. […] The cells were harvested after 1, 4, 6, 12, 24, and 48 hours from the transfection and luciferase activity was measured by using a Dual-Glo® Luciferase Assay kit (Promega catalog #E2910) according to manufacturer's recommendations: after removing the medium of the transfected cells, 75 μl of phosphate-buffered saline (PBS) was added thereto. Subsequently, 75 μl of a Dual-Glo® reagent was further added thereto, followed by mixing and incubation for 10 minutes, and then firefly luciferase luminescence was measured by using a luminometer (Perkin Elmer). Then, 75 μl of a Dual-Glo® Stop&Glo® reagent was further added thereto, followed by incubation for 10 minutes, and then Renilla luciferase luminescence was measured. A ratio of firefly luciferase luminous value to a Renilla luciferase luminous value, a control was calculated, and then luciferase activity per hour relative […] (RLU) was normalized, which is shown in FIG. 2. […]

T1 sequence (P00573 whole entry): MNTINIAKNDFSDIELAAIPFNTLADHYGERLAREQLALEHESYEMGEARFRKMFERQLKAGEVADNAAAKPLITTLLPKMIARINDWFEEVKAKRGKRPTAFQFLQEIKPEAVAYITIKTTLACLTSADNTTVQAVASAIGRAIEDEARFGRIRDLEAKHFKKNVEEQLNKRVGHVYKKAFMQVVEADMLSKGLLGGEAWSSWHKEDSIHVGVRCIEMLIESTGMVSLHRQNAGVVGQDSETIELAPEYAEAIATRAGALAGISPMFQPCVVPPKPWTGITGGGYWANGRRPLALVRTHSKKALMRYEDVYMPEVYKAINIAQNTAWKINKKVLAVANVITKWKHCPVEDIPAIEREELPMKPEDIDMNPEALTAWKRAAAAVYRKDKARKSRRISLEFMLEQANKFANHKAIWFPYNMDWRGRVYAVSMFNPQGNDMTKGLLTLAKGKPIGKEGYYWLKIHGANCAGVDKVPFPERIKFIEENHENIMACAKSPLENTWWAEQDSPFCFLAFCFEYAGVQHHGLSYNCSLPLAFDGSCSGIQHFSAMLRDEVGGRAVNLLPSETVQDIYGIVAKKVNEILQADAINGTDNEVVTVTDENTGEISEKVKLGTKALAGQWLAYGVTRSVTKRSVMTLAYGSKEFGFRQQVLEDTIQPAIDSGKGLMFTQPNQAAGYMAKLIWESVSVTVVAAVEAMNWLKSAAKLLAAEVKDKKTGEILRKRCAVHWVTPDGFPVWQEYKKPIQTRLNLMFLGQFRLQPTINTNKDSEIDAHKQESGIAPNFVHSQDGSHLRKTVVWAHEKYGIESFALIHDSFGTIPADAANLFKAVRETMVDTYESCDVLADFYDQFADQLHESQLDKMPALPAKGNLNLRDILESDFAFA

COC1[C@@H](OP(=O)(O)OC[C@H]2O[C@@H](n3cnc4c(=O)[nH]c(N)nc43)C(O)[C@H]2O)[C@@H](COP(=O)(O)OP(=O)(O)OP(=O)(O)OC[C@H]2O[C@@H](n3c[n+](C)c4c(=O)[nH]c(N)nc43)C(O)[C@H]2OS(C)(=O)=O)O[C@H]1n1cnc2c(N)ncnc21 (stereo partly drawn) [Example 8, ^7mG(3′OMs)pppA(2′OMe)pG]
IVT yield of luciferase mRNA with the compound as cap analog [1]: almost same | total protein expression level (AUC of luciferase activity) of mRNA capped with the compound ([2]; 1 hour to 48 hours after transfection, FIG. 3): higher total protein expression level | luciferase activity of mRNA capped with the compound ([2]; from 6 hours to 12 hours after transfection, FIG. 2): far higher luciferase activity
